Laboratory results as given in US10941379B2, “Microbial system for biosynthesis of natural and engineered products coupled to in situ extraction in supercritical CO2” (Massachusetts Institute of Technology, priority 2016, dated 2021).

Legend:
[1] = test system: B. megaterium SR7; settings: LB, aerobic
Procedure: To help guide optimization of growth conditions for strain SR7, physiological tests were conducted under aerobic conditions. To determine tolerance for pH, salinity and bicarbonate, high throughput culturing was done in 96 well plates and scored for growth by OD600 using a microplate reader (BioTek Synergy 2; BioTek; Winooski, Vt.). 200 uL LB solutions/well were inoculated in triplicate with 10^4 spores/ml (based on SR7 spore stock filter counts) and incubated on a plate rocker at 37° C. with unamended positive and cell-free negative LB controls. Tests for pH tolerance (pH 2-10) were conducted in LB medium amended with HCl or NaOH. The effect of salinity and bicarbonate on growth was determined by adding NaCl (1-10%) and NaHCO3 (0.1-0.5M), respectively, to LB media. Optimal SR7 growth temperature was tested by inoculating 10^4 spores/ml in 5 ml of LB in triplicate at temperatures of 9-55° C. Cultures and cell-free negative controls were incubated without shaking, with subsamples taken for periodic OD600 measurements. SR7 antibiotic sensitivity was determined by supplementing 5 ml LB with ampicillin (5-50 μg/ml), chloramphenicol (3.5-35 μg/ml), kanamycin (5-50 μg/ml), spectinomycin (10-100 μg/ml), streptomycin (10-100 μg/ml), or tetracycline (1.5-15 μg/ml).

[2] = test system: B. megaterium SR7; test: Biolog GenIII sole carbon source growth; assay type: cell-based, Bacillus megaterium; settings: for Growth in carbon source Biolog plate, +Metals: trace metals-amended plate; for Growth in carbon source Biolog plate, +Metals / Growth in carbon source Biolog plate, I / Growth in carbon source Biolog plate, II: Table 11; for Growth in carbon source Biolog plate, I: unamended plate trial I; for Growth in carbon source Biolog plate, II: unamended plate trial II
Procedure: (§1) Plates were incubated at 37° C. on a plate shaker at 200 rpm and assayed for growth using NADH-dependent colorimetric changes measured by OD490 on a microplate reader (BioTek Synergy 2; BioTek; Winooski, Vt.).

[3] = test system: B. megaterium SR7 spores; test: Delayed germination induction in PBS under 1 atm CO2 (bulk fluorescence, OD600); assay type: cell-based, Bacillus megaterium; settings: 9.5 hours after delayed induction in PBS; for OD600 Fold Decrease: OD decrease indicative of germination
Procedure: Sub-sample bulk fluorescence (Syto9®) was measured by microplate reader (BioTek Synergy 2; 485/20 excitation, 528/20 emission) and OD600 was measured by microplate reader. OD should decrease in germinated cells (the index of refraction decreases due to hydration upon spore coat degradation) while bulk fluorescence should increase as the nucleic acid stain progressively penetrates and permeates the cell (Magge et al., 2009). To test for germination after a delayed inducer spike rather than at the moment of inoculation, B. megaterium SR7 spores loaded at OD600 0.01 were incubated overnight in 30 ml of PBS, passaged into PBS amended with L-alanine (25-250 mM) or L-leucine (10-25 mM) and then assayed for germination by bulk fluorescence and OD600 during incubation.

[4] = test system: B. megaterium SR7 spores; test: Spore germination induction in PBS under 1 atm CO2 (fluorescence microscopy, bulk fluorescence); assay type: cell-based, Bacillus megaterium; settings: 100 mM, 8.5 hour endpoint (maximum)
Procedure: The role of candidate germination inducers was subsequently investigated in PBS buffer rather than growth medium to decouple the germination process from outgrowth. B. megaterium SR7 spores were loaded in triplicate 10 ml PBS amended with 100-250 mM L-alanine, 100 mM L-alanine with heat treatment, 25 mM L-leucine, or an unamended PBS control. The extent of germination was measured by fluorescence microscopy staining patterns (e.g., the degree of cell membrane penetration by DNA stain), bulk fluorescence, OD600, and flow cytometry (FCM). A total of 100-300 cells per filter were counted and categorized as either “dormant” or “germinated” if the spore stain was localized to the cell membrane or diffused within the interior of the cell, respectively (Cronin and Wilkinson, 2007). Cells displaying an intermediate degree of stain dispersal (“activated”) were categorized as germinated (FIG. 1).
Sub-sample bulk fluorescence (Syto9®) was measured by microplate reader (BioTek Synergy 2; 485/20 excitation, 528/20 emission) and OD600 was measured by microplate reader. OD should decrease in germinated cells (the index of refraction decreases due to hydration upon spore coat degradation) while bulk fluorescence should increase as the nucleic acid stain progressively penetrates and permeates the cell (Magge et al., 2009). […]

[5] = test system: B. megaterium SR7 spores; test: Flow cytometry germination assay (Syto16/PI); assay type: cell-based, Bacillus megaterium; settings: PBS amended with 2.5, 25, 250 mM
Procedure: FCM was employed as a high-throughput germination assay based on Baier et al., (2010). Triplicate cultures of B. megaterium SR7 spores loaded at OD600 0.01 were incubated overnight in PBS and PBS amended with 2.5-250 mM L-alanine, along with cell-free PBS controls. Prior to loading on the flow cytometer (BD FACS Canto II HTS-1; Becton Dickinson; Franklin Lakes, N.J.) cultures were diluted 1/50 in PBS and stained with Syto16® and propidium iodide (PI) in the dark for at least 30 minutes prior to analysis. After spore and media-only samples were used to set forward scatter, side-scatter, Syto16 and PI gates, sample data was collected and analyzed using […]™ software (BD Biosciences; Franklin Lakes, N.Y.).

[6] = test system: B. megaterium SR7 spores; test: Spore germination and growth under scCO2 with germination inducers; assay type: cell-based, Bacillus megaterium
Procedure: SR7 growth outcomes were investigated under scCO2 headspace (90-100 atm; 37° C.) while shaking at 250 rpm. SR7 spores were inoculated at starting concentrations of ˜3×10^4 spores/ml (unless otherwise specified) in either 50 mM K2HPO4-buffered LB (P-LB) or M9+ media (Table 1). Experiments assaying the effect of germination induction included 100 mM L-alanine and 10 mM L-leucine media amendments and heat treatment upon reactor pressurization (70° C. for 10 minutes). Incubations were conducted in 316 stainless steel vessels and gradually pressurized to supercritical conditions using a CO2/He cylinder, as previously described. SR7 germination was verified by the identification of vegetative cell morphologies using fluorescence microscopy of Syto9-stained cultures. Growth was defined by an increase of at least 10-fold growth in cell counts relative to t0.
In order to ascertain whether L-alanine, L-leucine, and heat treatment induce germination under scCO2 headspace, three replicate experiments were conducted comparing growth for SR7 spores when loaded in media P-LB, P-LBL, P-LBAL, or P-LBA±heat treatment (Table 1; Table 2). Reactors were depressurized and scored for germination and growth by fluorescence microscopy, as previously described.
Cell densities of P-LB and L-PBA incubations from the three experiments (Table 3; Incubations A-C) were subjected to statistical analysis to establish the significance of 100 mM L-alanine on spore growth outcomes. A non-parametric Wilcoxon/Kruskal-Wallis Test was performed on the dataset (JMP® Pro v.12; SAS Cary, N.C.) where growth outcome (growth/no growth) and cell density fold change (relative to t0) were dependent variables and incubation time and inducer presence/absence (±100 mM L-alanine) were independent variables. […]

[7] = test system: B. megaterium SR7 spores; test: Spore germination in LB under 1 atm CO2; assay type: cell-based, Bacillus megaterium; settings: 100 mM L-alanine-amended LB, unamended cultures grew between 4.5 and 6 hours
Procedure: The ability to induce spore germination based on literature precedent was tested by inoculating triplicate 10 ml cultures of SR7 spores at OD600 0.01 in LB amended with 100 mM L-alanine, LB subjected to a heat activation (65° C. for 15 minutes) upon inoculation, or unamended LB as a control. Growth was scored by OD600 and LB agar CFU plate counts. In addition, subsamples were heat-killed by exposure to 80° C. for 10 minutes (Setlow, 2006) prior to plating, to ascertain remaining spore concentrations, as heat exposure is lethal to vegetative cells.

[8] = test system: B. megaterium SR7; test: M9 supplemented growth under 1 atm CO2 (OD600); assay type: cell-based, Bacillus megaterium; settings: amendment to M9 base medium, 1 atm CO2, scored by OD600
Description: Development of a minimal medium enables individual chemical components to be tuned in order to establish optimized growth from a sole carbon source under 1 atm CO2. Initial attempts to generate B. megaterium SR7 growth in triplicate cultures tested various amendments to M9 base medium (thelabrat.com; Table 1), including 0.4% glucose or 0.4% xylose amendments as sole carbon sources, with or without trace metals solution (Boone et al., 1989). The 1× concentration trace metals solution consisted of (in g/l): 0.005 Na2(EDTA), 0.0002 NiSO4.6H2O, 0.0005 CoCl2.6H2O, 0.0001H2FeO3, 0.001 FeSO4.7H2O, 0.0001H3BO3, 0.001 ZnCl2, 0.0001 NaMoO4.2H2O, 0.0004 AlCl3.6H2O, 0.001 MnCl2.4H2O, 0.0003 Na2NO4.2H2O, 0.0002 CaCl2. To further boost growth, triplicate cultures of M9+0.4% glucose were amended with dilute LB (0.001-0.01×) or yeast extract (YE; 0.001-0.01×) as de facto vitamin and co-factor solutions, and/or NaNO3 (5 mM) as an alternative electron acceptor. All M9 incubations were scored for growth by OD600 and designated as robust above OD600>0.600, low level between 0.2-0.6, and no growth below 0.2. Passaged vegetative cultures were also assayed in duplicate for growth (by OD600) amended with a range (0.1×, 0.25×, 1×) of trace metals solutions in M9+0.4% glucose+0.01×YE media, including in the presence and absence of 5 mM NaNO3.

[9] = test system: B. megaterium DSM319; test: Biolog GenIII sole carbon source growth; assay type: cell-based, Bacillus megaterium; settings: no metals added; Table 10
Procedure: as §1

[10] = test system: B. megaterium QM B1551; test: Biolog GenIII sole carbon source growth; assay type: cell-based, Bacillus megaterium; settings: no metals added; Table 10
Procedure: as §1

[11] = assayed 0, 5, 10, 50, 80, 100 g/L over 36 h
[12] = pooled incubations, 18-20 days, unamended reactors 36%
[13] = assayed 0, 100, 300, 500 mM over 36 h

[Cl-].[Na+] [NaCl]
Optimal for SR7 growth, [NaCl] [1, 11]: 0 to 10 g/L | Range of viable SR7 growth, [NaCl] [1, 11]: 0 to 100 g/L

C[C@H](N)C(=O)O [L-alanine]
Growth in carbon source Biolog plate, +Metals [2]: + | Growth in carbon source Biolog plate, I [2]: + | Growth in carbon source Biolog plate, II [2]: + | Fluorescence Fold Increase ([3]; 25 mM inducer): 2.1 fold | OD600 Fold Decrease ([3]; 25 mM inducer): 1.5 fold | Fluorescence Fold Increase ([3]; 100 mM inducer): 1.4 fold | OD600 Fold Decrease ([3]; 100 mM inducer): 1.2 fold | Fluorescence Fold Increase ([3]; 250 mM inducer): 1.4 fold | OD600 Fold Decrease ([3]; 250 mM inducer): 1.2 fold | Bulk fluorescence relative to PBS only incubated spores [4]: 2.4 fold | Spores gated as germinated (Syto16/PI fluorescence) ([5]; PBS only 3.7%): 1.38-31.8% | Spores gated as activated (Syto16/PI fluorescence) ([5]; PBS only 22.0%): 44-69% | Growth frequency of cultures under scCO2 [6, 12]: 63% | Growth frequency of cultures under scCO2 ([6]; with heat treatment): 50% | Time to germination [7]: ≤ 4.5 h

O=C(O)O [NaHCO3]
Optimal for SR7 growth, NaHCO3 [1, 13]: 0 to 100 mM | Range of viable SR7 growth, NaHCO3 [1, 13]: 0 to 300 mM

CC(C)C[C@H](N)C(=O)O [L-leucine]
Fluorescence Fold Increase ([3]; 10 mM inducer): 2.0 fold | OD600 Fold Decrease ([3]; 10 mM inducer): 1.2 fold | Fluorescence Fold Increase ([3]; 25 mM inducer): 2.0 fold | OD600 Fold Decrease ([3]; 25 mM inducer): 1.2 fold | Growth frequency of cultures under scCO2 [6, 12]: 7.7%

O=C[C@H](O)[C@@H](O)[C@H](O)CO [0.4% Xylose, Xylose]
Growth [8]: − (no growth below 0.2)

OC[C@H]1O[C@@](CO)(O[C@H]2O[C@H](CO)[C@@H](O)[C@H](O)[C@H]2O)[C@@H](O)[C@@H]1O [Sucrose]
Growth on Biolog sole carbon source, DSM319 [9]: +++ | Growth on Biolog sole carbon source, QM B1551 [10]: + | Growth on Biolog sole carbon source, SR7 ([2]; no metals added, Table 10): − | Growth in carbon source Biolog plate, +Metals [2]: + | Growth in carbon source Biolog plate, I [2]: − | Growth in carbon source Biolog plate, II [2]: +
